This note sets out measurements from patent US20230026232A1, “AHR INHIBITORS AND USES THEREOF” (Ikena Oncology, Inc., priority 2019, published 2023).

Entries after “also recorded” stand apart in the source; their conditions may differ.

Data set [1] can be described thus: Two stage gastric transfer non-sink dissolution test (0.1N HCl then FaSSIF). The format is physicochemical. The settings on record: 100 RPM. The procedure: In vitro drug dissolution performance for both API forms and each SDI was evaluated by the two stage ‘gastric transfer’ non-sink dissolution test (Table 8), which simulates pH and bile salt concentrations for both gastric and intestinal exposure in a sample to perform assay. Pre-weighed SDI powder is briefly suspended in media (e.g., by 10 sec vortex mixing with 4.0 mL media) and transferred to a pre-heated (37° C.) volume of 50 mL of 0.1N HCl (aq) (simulated gastric fluid or SGF, pH ˜1.0, without pepsin or bile salts), in a USP Type 2 mini-vessel (100 mL total vessel volume) while stirring (paddles) at 100 rpm. […] Initial Compound A API measurements and SDI dissolution samples were determined utilizing a HPLC method (Table 7). […]

Data set [2] in a line: Phase 1 dose-escalation study: safety. The format is in vivo. As to conditions: 200 mg, 400 mg, 800 mg, and 1200 mg QD, human patients, fed state. An excerpt: This is a first-in-human (FIH), single-arm, dose-escalation and expansion study to evaluate the safety, tolerability, PK, pharmacodynamics, and preliminary antitumor activity of Compound A administered orally in patients with advanced solid tumors and urothelial carcinoma. Subject enrollment and continuous safety assessment will be guided by a mTPI-2 design (Guo, 2017). Decisions for dose escalation and de-escalation will be made by a Safety Review Committee (SRC) comprised of the enrolling study Investigators and the Sponsor. To assess evidence of preliminary antitumor activity, a Simon 2-stage design (Simon, 1989) is used.
Toxicity is evaluated according to National Cancer Institute Common Terminology Criteria for Adverse Events (AEs) (NCI-CTCAE) v5.0. DLT events are defined herein. AEs will be assessed, and laboratory values (chemistry, hematology, coagulation, thyroid function and urinalysis as specified herein), vital signs, and 12-lead triplicate electrocardiograms (ECGs) are obtained to evaluate the safety and tolerability of Compound A.
A modified Toxicity Probability Interval (mTPI-2) design (Guo, 2017) with a target DLT rate of approximately 30% is applied for dose escalation and confirmation to determine the Compound A RP2D. Several dose levels of Compound A, planned from 200 mg QD to 1600 mg daily, are explored. […]

With `CC(C)c1cnn2c(N[C@@H]3CCc4[nH]c5ccccc5c4C3)nc(-c3cncc(F)c3)nc12` [Compound A, (R)—N-(2-(5-fluoropyridin-3-yl)-8-isopropylpyrazolo[1,5-a][1,3,5]triazin-4-yl)-2,3,4,9-tetrahydro-1H-carbazol-3-amine], in data set [1], the “AUC35-210 FaSSIF (area under the curve after transfer to FaSSIF from 35 to 210 minutes)” value came to 2100 min*μgA/mL and the “C210 (drug concentration at 180 minutes after transfer to FaSSIF)” value is listed as 4.5 μgA/mL. In addition, in data set [2], the “serious adverse events (SAEs)” value is “without any drug-related serious adverse events; also recorded: no serious adverse events”.
